Data from PubChem BioAssay (NCI).
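Briefly, cells in 96-well plates were exposed to five compound concentrations for 48 h, and endpoints were estimated by linear interpolation. Abbreviation: GI50, concentration required for 50% inhibition of growth. At the TGI there is no net growth.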

Assays:
Experiment in all cases: inhibition of tumour cell growth, NCI panel, 48 h
NCI-H226 lung = system: NCI-H226 lung
SN12C renal = system: SN12C renal
SF-268 CNS = system: SF-268 CNS
RPMI-8226 leukemia = system: RPMI-8226 leukemia
LOX IMVI melanoma = system: LOX IMVI melanoma
SF-539 CNS = system: SF-539 CNS
A498 renal = system: A498 renal
M14 melanoma = system: M14 melanoma
SK-MEL-2 melanoma = system: SK-MEL-2 melanoma
UACC-62 melanoma = system: UACC-62 melanoma
SNB-75 CNS = system: SNB-75 CNS
OVCAR-3 ovarian = system: OVCAR-3 ovarian
KM12 colon = system: KM12 colon
NCI/ADR-RES ovarian = system: NCI/ADR-RES ovarian
HL-60(TB) leukemia = system: HL-60(TB) leukemia
SF-295 CNS = system: SF-295 CNS
IGROV1 ovarian = system: IGROV1 ovarian
SR leukemia = system: SR leukemia
ACHN renal = system: ACHN renal
MDA-MB-435 = system: MDA-MB-435
MDA-MB-231 breast = system: MDA-MB-231 breast
SK-OV-3 ovarian = system: SK-OV-3 ovarian
HCC-2998 colon = system: HCC-2998 colon
EKVX NSCLC = system: EKVX NSCLC
DU-145 prostate = system: DU-145 prostate
T-47D breast = system: T-47D breast
CCRF-CEM leukemia = system: CCRF-CEM leukemia
SK-MEL-28 melanoma = system: SK-MEL-28 melanoma
RXF 393 renal = system: RXF 393 renal
HS 578T breast = system: HS 578T breast
NCI-H460 lung = system: NCI-H460 lung
HOP-62 NSCLC = system: HOP-62 NSCLC
NCI-H522 lung = system: NCI-H522 lung
HOP-92 NSCLC = system: HOP-92 NSCLC
HCT-15 colon = system: HCT-15 colon
HT29 colon = system: HT29 colon
UO-31 renal = system: UO-31 renal
BT-549 breast = system: BT-549 breast
A549 NSCLC = system: A549 NSCLC
TK-10 renal = system: TK-10 renal
MCF7 breast = system: MCF7 breast
OVCAR-8 ovarian = system: OVCAR-8 ovarian
CAKI-1 renal = system: CAKI-1 renal
NCI-H23 lung = system: NCI-H23 lung
U251 CNS = system: U251 CNS
SK-MEL-5 melanoma = system: SK-MEL-5 melanoma
SNB-19 CNS = system: SNB-19 CNS
MOLT-4 leukemia = system: MOLT-4 leukemia
HCT-116 colon = system: HCT-116 colon
COLO 205 colon = system: COLO 205 colon
OVCAR-4 ovarian = system: OVCAR-4 ovarian
OVCAR-5 ovarian = system: OVCAR-5 ovarian
K-562 leukemia = system: K-562 leukemia
SW-620 colon = system: SW-620 colon
MALME-3M melanoma = system: MALME-3M melanoma
786-0 renal = system: 786-0 renal
UACC-257 melanoma = system: UACC-257 melanoma
PC-3 prostate = system: PC-3 prostate

Work on `COc1cc2c3c(n(CCCNCCCNCCCn4c5c(c6cc(OC)c(OC)cc6c4=O)C(=O)c4ccccc4-5)c(=O)c2cc1OC)-c1ccccc1C3=O` yielded a GI50 (NCI-H226 lung) of 7.89 µM, a TGI (NCI-H226 lung) of over 52.2 µM and a GI50 (SN12C renal) of 0.706 µM. It also gave a TGI (SN12C renal) of over 51.6 µM, a GI50 (SF-268 CNS) of 6.61 µM and a TGI (SF-268 CNS) of over 100 µM. The GI50 (RPMI-8226 leukemia) was 0.487 µM, the TGI (RPMI-8226 leukemia) was 6.62 µM and the GI50 (LOX IMVI melanoma) was 1.31 µM. The TGI (LOX IMVI melanoma) was 13.9 µM, the GI50 (SF-539 CNS) was 9.17 µM and the TGI (SF-539 CNS) was 45.4 µM. It also gave a GI50 (A498 renal) of 25.2 µM, a TGI (A498 renal) of 59.8 µM and a GI50 (M14 melanoma) of 22.6 µM. It also gave a TGI (M14 melanoma) of over 58.9 µM, a GI50 (SK-MEL-2 melanoma) of 40.3 µM and a TGI (SK-MEL-2 melanoma) of over 100 µM. For the same molecule, the GI50 (UACC-62 melanoma) was 8.75 µM, the TGI (UACC-62 melanoma) was 38.9 µM and the GI50 (SNB-75 CNS) was 25 µM. For the same molecule, the TGI (SNB-75 CNS) was 62.1 µM, the GI50 (OVCAR-3 ovarian) was 12.6 µM and the TGI (OVCAR-3 ovarian) was 31.5 µM. For the same molecule, the GI50 (KM12 colon) was 4.77 µM, the TGI (KM12 colon) was over 84.9 µM and the GI50 (NCI/ADR-RES ovarian) was over 100 µM. For the same molecule, the TGI (NCI/ADR-RES ovarian) was over 100 µM, the GI50 (HL-60(TB) leukemia) was 1.11 µM and the TGI (HL-60(TB) leukemia) was 12.6 µM. The GI50 (SF-295 CNS) was 5.03 µM, the TGI (SF-295 CNS) was 18.4 µM and the GI50 (IGROV1 ovarian) was 1.33 µM. It also gave a TGI (IGROV1 ovarian) of over 55.6 µM, a GI50 (SR leukemia) of 0.225 µM and a TGI (SR leukemia) of 22.2 µM. It also gave a GI50 (ACHN renal) of 24.2 µM, a TGI (ACHN renal) of over 100 µM and a GI50 (MDA-MB-435) of 12.9 µM. The TGI (MDA-MB-435) was over 59.1 µM, the GI50 (MDA-MB-231 breast) was 2 µM and the TGI (MDA-MB-231 breast) was 20.1 µM. For the same molecule, the GI50 (SK-OV-3 ovarian) was over 100 µM, the TGI (SK-OV-3 ovarian) was over 100 µM and the GI50 (HCC-2998 colon) was 2.13 µM. The TGI (HCC-2998 colon) was 30.3 µM, the GI50 (EKVX NSCLC) was over 100 µM and the TGI (EKVX NSCLC) was over 100 µM. It also gave a GI50 (DU-145 prostate) of over 44.3 µM, a TGI (DU-145 prostate) of over 100 µM and a GI50 (T-47D breast) of over 24.8 µM. It also gave a TGI (T-47D breast) of over 100 µM, a GI50 (CCRF-CEM leukemia) of 0.491 µM and a TGI (CCRF-CEM leukemia) of 12.7 µM. The GI50 (SK-MEL-28 melanoma) was over 52.5 µM, the TGI (SK-MEL-28 melanoma) was over 82.4 µM and the GI50 (RXF 393 renal) was over 47.8 µM. For the same molecule, the TGI (RXF 393 renal) was over 92.2 µM, the GI50 (HS 578T breast) was over 50.7 µM and the TGI (HS 578T breast) was over 100 µM. It also gave a GI50 (NCI-H460 lung) of 6.23 µM, a TGI (NCI-H460 lung) of over 100 µM and a GI50 (HOP-62 NSCLC) of 6.59 µM. It also gave a TGI (HOP-62 NSCLC) of 47 µM, a GI50 (NCI-H522 lung) of 1.54 µM and a TGI (NCI-H522 lung) of 38.7 µM. It also gave a GI50 (HOP-92 NSCLC) of 1.74 µM, a TGI (HOP-92 NSCLC) of 8.62 µM and a GI50 (HCT-15 colon) of over 84.5 µM. The TGI (HCT-15 colon) was over 100 µM, the GI50 (HT29 colon) was 2.15 µM and the TGI (HT29 colon) was over 100 µM. For the same molecule, the GI50 (UO-31 renal) was over 100 µM, the TGI (UO-31 renal) was over 100 µM and the GI50 (BT-549 breast) was 58.2 µM. The TGI (BT-549 breast) was over 100 µM, the GI50 (A549 NSCLC) was 12.7 µM and the TGI (A549 NSCLC) was over 100 µM. For the same molecule, the GI50 (TK-10 renal) was 40.2 µM, the TGI (TK-10 renal) was over 100 µM and the GI50 (MCF7 breast) was 1.51 µM. The TGI (MCF7 breast) was over 53.2 µM, the GI50 (OVCAR-8 ovarian) was 2.87 µM and the TGI (OVCAR-8 ovarian) was over 100 µM. For the same molecule, the GI50 (CAKI-1 renal) was over 100 µM, the TGI (CAKI-1 renal) was over 100 µM and the GI50 (NCI-H23 lung) was over 100 µM. The TGI (NCI-H23 lung) was over 100 µM, the GI50 (U251 CNS) was 2.49 µM and the TGI (U251 CNS) was 17.4 µM. For the same molecule, the GI50 (SK-MEL-5 melanoma) was 68.2 µM, the TGI (SK-MEL-5 melanoma) was over 100 µM and the GI50 (SNB-19 CNS) was 6.91 µM. It also gave a TGI (SNB-19 CNS) of over 47.8 µM, a GI50 (MOLT-4 leukemia) of 2.65 µM and a TGI (MOLT-4 leukemia) of 9.8 µM. The GI50 (HCT-116 colon) was 1.27 µM, the TGI (HCT-116 colon) was 17.6 µM and the GI50 (COLO 205 colon) was 7.24 µM. For the same molecule, the TGI (COLO 205 colon) was over 61.9 µM, the GI50 (OVCAR-4 ovarian) was over 100 µM and the TGI (OVCAR-4 ovarian) was over 100 µM. It also gave a GI50 (OVCAR-5 ovarian) of 20 µM, a TGI (OVCAR-5 ovarian) of over 100 µM and a GI50 (K-562 leukemia) of 3.39 µM. It also gave a TGI (K-562 leukemia) of 45.4 µM, a GI50 (SW-620 colon) of 7.51 µM and a TGI (SW-620 colon) of over 100 µM. The GI50 (MALME-3M melanoma) was 25.7 µM, the TGI (MALME-3M melanoma) was over 91.7 µM and the TGI (786-0 renal) was over 46.4 µM. For the same molecule, the GI50 (UACC-257 melanoma) was over 100 µM, the TGI (UACC-257 melanoma) was over 100 µM and the GI50 (PC-3 prostate) was 4.04 µM. It also gave a TGI (PC-3 prostate) of over 60 µM.
